Data from patent US20210401834A1 (IMBRIA PHARMACEUTICALS, INC., priority 2020, published 2021).
Read-outs that look alike come from different tables or passages of the source.

Experiments:
[1] = human, in vivo, 150 mg
Procedure: The blood samples were taken via an indwelling intravenous catheter or by direct venipuncture. The exact times of blood sampling were recorded in the eCRF.
The subjects were instructed to empty their bladders completely before study drug administration and at the end of each collection interval. A blank urine sample was collected within 12 hours prior to study drug administration. The exact times of urine collection and the urine weight of the entire interval (before and after addition of any urine stabilizers, if used) were recorded in the eCRF.

[2] = human, in vivo, 200 mg
Text: The MR formulation of IMB-1018972 to be administered on Day 13 under fed conditions was 1 of the 4 MR formulations administered on Days 1, 4, 7, and 10 under fasted conditions.
The effect of food on the relative oral bioavailability of IMB-1018972 following a single oral administration was explored. This occurred in the single-dose MR part where subjects received the same dose, first under fasted conditions and then under fed conditions.

[3] = pH stability profile of a 1 mg/mL solution of CV-8972 at 23° C.; format: physicochemical
Procedure: The pH stability profile is summarized and shown in Table 2 for a 1 mg/mL solution of CV-8972 at 23° C.
The hydrolysis proceeds via the first step shown in FIG. 1, as Nicotinic acid and CV-8814 are the only decomposition products generated. The optimal pH for solution stability appears to be around pH 5-5.1 for a 1 mg/mL solution with acid-catalyzed hydrolysis increasing at pH values less than 5.0 and base-catalyzed hydrolysis increasing above pH 5.0.

[4] = BCS classification from solubility and permeability
Text: CV-8972 can therefore be considered as BCS Class 1 per se, but the pre-systemic metabolism to CV-8814 and possibly other metabolites may complicate and impact the actual biopharmaceutical absorption profile found in humans.

[5] = Decomposition kinetics of CV-8972 in media simulating the GI tract, 37° C., 0.2 mg/mL (HPLC); format: physicochemical
Procedure: The solution stability of CV-8972 was evaluated in multiple media currently used to simulate dissolution and stability conditions in the various sections of the GI tract. As CV-8972 will be subject to hydrolysis as it is dissolving in the GI tract, it will be important to understand these kinetics in terms of designing instant and controlled-release formulations. HPLC methods were used to perform these assessments.

[6] = Phase 1 FIH study: overall safety (vital signs, 12-lead ECG); format: in vivo, human; conditions: after administration as the MR formulations, healthy subjects
Procedure: These assessments were made using an automated device. Body temperature and respiratory rate were measured subsequently.
Safety and tolerability were assessed through AEs, clinical laboratory, vital signs, ECGs, continuous cardiac monitoring (telemetry), and physical examination findings, and any other parameter that was relevant for safety assessment.

[7] = Phase 1 FIH study, single-dose MR part: safety and tolerability; format: in vivo, human
Procedure: (§1) AEs were recorded from (first) admission until completion of the follow-up visit. Any clinically significant observations in results of clinical laboratory, 12-lead ECGs, vital signs, or physical examinations were recorded as AEs.
(§2) A treatment-emergent AE (TEAE) was defined as any event not present prior to (the first) administration of the study drug or any event already present that worsened in either severity or frequency following exposure to the study drug.
(§3) The severity of the AEs was rated as mild, moderate, or severe; the relationship between the AEs and the study drug was indicated as none, unlikely, possibly, likely, or definitely. Adverse events assessed as possibly, likely, or definitely were considered related to the study drug; AEs assessed as none or unlikely were considered not related to the study drug.

[8] = Phase 1 FIH study, multiple-dose MR part: safety and tolerability; format: in vivo, human
Procedure: as §1, §2, §3

COc1ccc(CN2CCN(CCO)CC2)c(OC)c1OC [CV-8814, 2-[4-[(2,3,4-trimethoxyphenyl)methyl]piperazin-1-yl]ethanol]
Cmax lower under fed relative to fasted conditions [1]: approximately 36% | effect of food on exposure parameters AUC0-t and AUC0-inf [1]: No evidence for an effect of food | Cmax higher under fed relative to fasted conditions [2]: approximately 42% | effect of food on exposure parameters AUC0-t and AUC0-inf [2]: No evidence for an effect of food | food effect estimate for AUC0-inf (ratio of geometric means fed/fasted) [2]: 1.16 | food effect estimate for AUC0-t (ratio of geometric means fed/fasted) [2]: 1.16 | food effect estimate for Cmax (ratio of geometric means fed/fasted) [2]: 1.42

COc1ccc(CN2CCN(CCOC(=O)c3cccnc3)CC2)c(OC)c1OC [CV-8972, 2-[4-[(2,3,4-trimethoxyphenyl)methyl]piperazin-1-yl]ethyl pyridine-3-carboxylate]
half-life at 1 mg/mL ([3]; 20 mM ammonium acetate buffer, pH 5.05, 20 mM Am. Acetate): 658 h | half-life at 1 mg/mL ([3]; 20 mM phosphate buffer, pH 3.52, 20 mM Phos): 254 h | half-life at 1 mg/mL ([3]; 20 mM phosphate buffer, pH 6.5, 20 mM Phos): 61.9 h | half-life at 1 mg/mL ([3]; 20 mM phosphate buffer, pH 6.88, 20 mM Phos): 33.6 h | 1st order Kobs ([3]; pH 2.74, Water): 0.00516 hr − 1 | half-life at 1 mg/mL ([3]; pH 2.74, Water): 134 h | 1st order Kobs ([3]; pH 3.52, 20 mM Phos): 0.00273 hr − 1 | 1st order Kobs ([3]; pH 5.05, 20 mM Am. Acetate): 0.00105 hr − 1 | 1st order Kobs ([3]; pH 5.64, 20 mM Phos): 0.00248 hr − 1 | 1st order Kobs ([3]; pH 6.5, 20 mM Phos): 0.01119 hr − 1 | 1st order Kobs ([3]; pH 6.88, 20 mM Phos): 0.02064 hr − 1 | half-life at 1 mg/mL ([3]; phosphate buffer, pH 5.64, 20 mM Phos): 280 h | BCS class [4]: BCS Class 1 | half-life at 0.2 mg/mL ([5]; 0.1M HCl, pH 1, 0.1M HCl, pH 1.0, no surfactants): 3.13 h | half-life at 0.2 mg/mL ([5]; FaSSGF, pH 1.6, FaSSGF, pH 1.6): 48.5 h | half-life at 0.2 mg/mL ([5]; FaSSIF, pH 6.5, FaSSIF, pH 6.5): 13.5 h | half-life at 0.2 mg/mL ([5]; FeSSIF (medium simulating the GI tract), pH 5.8, FeSSIF, pH 5.8): 99.6 h | half-life at 0.2 mg/mL ([5]; pH 6, BiCarb adj (0.1M HCl neutralized with sodium bicarbonate), pH 6-8.2): 1.52 h | hemodynamic changes and QTc-interval [6]: no findings of hemodynamic changes, nor changes in the QTc-interval | number of TEAEs of mild severity ([7]; of 37 TEAEs): Thirty-six | number of TEAEs of moderate severity ([7]; of 37 TEAEs): 1 | tolerability ([7]; single doses of 50 mg and 200 mg MR formulations (4-hour, 8-hour) fasted, 200 mg 8-hour MR fed, healthy subjects): well tolerated | subjects with TEAEs considered not related to the study drug ([7]; single-dose MR part): 83.3% | subjects with TEAEs considered related to the study drug ([7]; single-dose MR part): 33.3% | subjects with TEAEs, SOC gastrointestinal disorders ([7]; single-dose MR part): 33.3% | subjects with TEAEs, SOC general disorders and administration site conditions ([7]; single-dose MR part): 58.3% | subjects with TEAEs, SOC nervous system disorders ([7]; single-dose MR part): 58.3% | subjects with drug-related TEAEs of pollakiuria ([7]; single-dose MR part): 16.7% | subjects reporting TEAEs ([7]; single-dose MR part, 12 subjects): 83.3% | subjects reporting TEAEs ([8]; 200 mg 8-hour MR formulation q12h fed, 5 days, 12 subjects): 100% | number of drug-related TEAEs of flushing (vascular disorders) ([8]; multiple-dose MR part): 2 | subjects with TEAEs considered not related to the study drug ([8]; multiple-dose MR part): 75% | subjects with TEAEs considered related to the study drug ([8]; multiple-dose MR part): 58.3% | subjects with TEAEs, SOC gastrointestinal disorders ([8]; multiple-dose MR part): 41.7% | subjects with TEAEs, SOC general disorders and administration site conditions ([8]; multiple-dose MR part): 33.3% | subjects with TEAEs, SOC musculoskeletal and connective tissue disorders ([8]; multiple-dose MR part): 33.3% | subjects with TEAEs, SOC nervous system disorders ([8]; multiple-dose MR part): 58.3% | subjects with TEAEs, SOC renal and urinary disorders (pollakiuria) ([8]; multiple-dose MR part): 33.3% | subjects with drug-related TEAEs of flushing (vascular disorders) ([8]; multiple-dose MR part): 16.7% | subjects with drug-related TEAEs of pollakiuria ([8]; multiple-dose MR part): 33.3% | subjects with drug-related TEAEs, nervous system disorders ([8]; multiple-dose MR part): 16.7%

COc1ccc(CN2CCNCC2)c(OC)c1OC [trimetazidine, reference compound]
effect of food on exposure parameters Cmax, AUC0-t and AUC0-inf [1]: No evidence for an effect of food | effect of food on exposure parameters Cmax, AUC0-t and AUC0-inf [2]: No evidence for an effect of food | food effect estimate for AUC0-inf (ratio of geometric means fed/fasted) [2]: 0.97 | food effect estimate for AUC0-t (ratio of geometric means fed/fasted) [2]: 0.99 | food effect estimate for Cmax (ratio of geometric means fed/fasted) [2]: 1.10
